Measurements: the CheMixHub ionic liquid set
± gives the uncertainty stated by the source.

Assay: xn = mol fraction of the nth substance listed

CCCCCCCCCC(=O)[O-].CCCCCCCCCCCCCC[P+](CCCCCC)(CCCCCC)CCCCCC + O
Settings	viscosity [mPa·s]
358.15 K, 100 kPa, x2 = 0.872	9.345 ± 0.073

CCCC[n+]1ccc(C)cc1.N#C[S-] + O
101 kPa
Settings	viscosity [mPa·s]
298.15 K, x2 = 0.0564	74.9 ± 8.2
298.15 K, x2 = 0.9714	1.58 ± 0.1
308.15 K, x2 = 0.6364	10.02 ± 0.62
308.15 K, x2 = 0.9714	1.24 ± 0.08
318.15 K, x1 = 0.0076	0.73 ± 0.05
318.15 K, x2 = 0	33.9 ± 2.1
318.15 K, x2 = 0.9714	1.01 ± 0.07
328.15 K, x2 = 0.9028	1.71 ± 0.11
328.15 K, x2 = 0.957	1.01 ± 0.06
328.15 K, x2 = 0.9714	0.84 ± 0.05
338.15 K, x2 = 0	17.3 ± 1.1
338.15 K, x2 = 0.1655	12.9 ± 0.8
338.15 K, x2 = 0.3797	8.38 ± 0.52
338.15 K, x2 = 0.4628	7.17 ± 0.45
338.15 K, x2 = 0.5669	5.54 ± 0.34
338.15 K, x2 = 0.7623	2.94 ± 0.18
338.15 K, x2 = 0.9714	0.73 ± 0.05
348.15 K, x2 = 0.1655	9.89 ± 0.62
348.15 K, x2 = 0.5669	4.45 ± 0.28
348.15 K, x2 = 0.957	0.75 ± 0.05

CCC[n+]1ccn(C)c1.COS(=O)(=O)[O-] + O
viscosity [mPa·s], 101 kPa
Settings	298.15 K	308.15 K	318.15 K	328.15 K
x1 = 0.000281	0.799 ± 0.044	0.699 ± 0.043	0.62 ± 0.043	0.566 ± 0.042
x1 = 0.0007725	0.805 ± 0.044	0.709 ± 0.043	0.638 ± 0.043	0.57 ± 0.042
x1 = 0.0009344	0.814 ± 0.044	0.717 ± 0.044	0.642 ± 0.043	0.575 ± 0.042
x1 = 0.001368	0.819 ± 0.044	0.727 ± 0.044	0.647 ± 0.043	0.58 ± 0.043
x1 = 0.001628	0.813 ± 0.044	0.735 ± 0.044	0.66 ± 0.043	0.588 ± 0.043
x1 = 0.002412	0.829 ± 0.044	0.758 ± 0.044	0.658 ± 0.043	0.602 ± 0.043
x1 = 0.004829	0.838 ± 0.044	0.796 ± 0.044	0.702 ± 0.043	0.647 ± 0.043
x1 = 0.007746	0.886 ± 0.045	0.847 ± 0.044	0.757 ± 0.044	0.701 ± 0.043
x1 = 0.009565	0.931 ± 0.045	0.888 ± 0.045	0.81 ± 0.044	0.736 ± 0.044
x1 = 0.01237	0.999 ± 0.046	0.93 ± 0.045	0.865 ± 0.045	0.79 ± 0.044
x1 = 0.01639	1.113 ± 0.047	1.021 ± 0.046	0.963 ± 0.046	0.878 ± 0.045
x1 = 0.01912	1.182 ± 0.048	1.072 ± 0.047	1.017 ± 0.046	0.953 ± 0.046
x2 = 0.9709	1.48 ± 0.051	1.268 ± 0.049	1.247 ± 0.049	1.122 ± 0.047
x2 = 0.9746	1.387 ± 0.05	1.205 ± 0.048	1.167 ± 0.048	1.054 ± 0.046

C[N+](C)(C)Cc1ccccc1.[Cl-] + O
electrical conductivity [S/m], 101.3 kPa, frequency 0.001 MHz
Settings	298.15 K	308.15 K	318.15 K
x1 = 1.802e-05	0.0137 ± 0.0052	0.0183 ± 0.0062	0.0233 ± 0.0077
x1 = 5.406e-05	0.0295 ± 0.0056	0.0398 ± 0.0071	0.0456 ± 0.0084
x1 = 9.009e-05	0.0457 ± 0.0069	0.0565 ± 0.0079	0.0643 ± 0.0094

viscosity [mPa·s]
Settings	298.15 K	303.15 K	308.15 K	318.15 K
100 kPa, x1 = 0.0004874	–	0.813 ± 0.017	–	–
101.3 kPa, x1 = 1.802e-05	0.88 ± 0.045	–	–	0.611 ± 0.044
101.3 kPa, x1 = 5.406e-05	–	–	0.747 ± 0.044	0.627 ± 0.044
101.3 kPa, x1 = 9.009e-05	0.914 ± 0.045	–	0.766 ± 0.045	0.646 ± 0.044

CC(=O)Nc1ccc(O)cc1 + O + CCCC[n+]1ccn(C)c1.[Br-]
101 kPa, frequency 0.0003 MHz
Settings	electrical conductivity [S/m]
293.15 K, x1 = 0.0005475, x3 = 1.14e-05	0.0067 ± 0.0039
293.15 K, x1 = 0.0005475, x3 = 1.628e-05	0.0094 ± 0.004
293.15 K, x1 = 0.001082, x3 = 4.9e-06	0.003 ± 0.0038
298.15 K, x1 = 0.0005475, x3 = 9.05e-06	0.0056 ± 0.004
298.15 K, x1 = 0.0005475, x3 = 1.447e-05	0.0085 ± 0.004
298.15 K, x1 = 0.001082, x3 = 5.63e-06	0.0034 ± 0.0039
298.15 K, x1 = 0.001082, x3 = 1.162e-05	0.0067 ± 0.0038
298.15 K, x1 = 0.001082, x3 = 1.635e-05	0.0092 ± 0.0039
303.15 K, x1 = 0.0005475, x3 = 5.43e-06	0.0036 ± 0.0041
303.15 K, x1 = 0.0005475, x3 = 1.158e-05	0.0071 ± 0.0037
303.15 K, x1 = 0.001082, x3 = 5.09e-06	0.0032 ± 0.0039
303.15 K, x1 = 0.001082, x3 = 1.162e-05	0.0067 ± 0.0037
303.15 K, x1 = 0.001082, x3 = 1.617e-05	0.0091 ± 0.0039
308.15 K, x1 = 0.0005475, x3 = 2.71e-06	0.0025 ± 0.0049
308.15 K, x1 = 0.0005475, x3 = 9.41e-06	0.0073 ± 0.0045
308.15 K, x1 = 0.001082, x3 = 5.63e-06	0.0038 ± 0.0042
308.15 K, x1 = 0.001082, x3 = 1.199e-05	0.0075 ± 0.0038

CC(=O)Nc1ccc(O)cc1 + O + CCCC[n+]1ccn(C)c1.[Cl-]
101 kPa, frequency 0.0003 MHz
Settings	electrical conductivity [S/m]
293.15 K, x1 = 0.0005511, x3 = 5.07e-06	0.0028 ± 0.0035
293.15 K, x1 = 0.0005511, x3 = 8.5e-06	0.0044 ± 0.0034
293.15 K, x1 = 0.0005511, x3 = 1.194e-05	0.0061 ± 0.0034
293.15 K, x1 = 0.0005511, x3 = 1.61e-05	0.0081 ± 0.0034
293.15 K, x1 = 0.0005511, x3 = 1.954e-05	0.0096 ± 0.0034
293.15 K, x1 = 0.001084, x3 = 4.54e-06	0.0025 ± 0.0031
293.15 K, x1 = 0.001084, x3 = 7.63e-06	0.0038 ± 0.003
293.15 K, x1 = 0.001084, x3 = 1.144e-05	0.0055 ± 0.003
293.15 K, x1 = 0.001084, x3 = 1.471e-05	0.0067 ± 0.0031
293.15 K, x1 = 0.001084, x3 = 1.907e-05	0.0086 ± 0.003
298.15 K, x1 = 0.0005511, x3 = 2.53e-06	0.0016
298.15 K, x1 = 0.0005511, x3 = 4.16e-06	0.0025 ± 0.0038
298.15 K, x1 = 0.0005511, x3 = 6.69e-06	0.0039 ± 0.0037
298.15 K, x1 = 0.0005511, x3 = 8.87e-06	0.005 ± 0.0037
298.15 K, x1 = 0.0005511, x3 = 1.122e-05	0.0062 ± 0.0037
298.15 K, x1 = 0.0005511, x3 = 1.285e-05	0.007 ± 0.0037
298.15 K, x1 = 0.0005511, x3 = 1.701e-05	0.009 ± 0.0036
298.15 K, x1 = 0.001084, x3 = 4.54e-06	0.0028 ± 0.0036
298.15 K, x1 = 0.001084, x3 = 8.36e-06	0.0046 ± 0.0035
298.15 K, x1 = 0.001084, x3 = 1.235e-05	0.0065 ± 0.0035
298.15 K, x1 = 0.001084, x3 = 1.962e-05	0.0099 ± 0.0034
303.15 K, x1 = 0.0005511, x3 = 3.44e-06	0.0022 ± 0.0039
303.15 K, x1 = 0.0005511, x3 = 5.79e-06	0.0035 ± 0.0039
303.15 K, x1 = 0.0005511, x3 = 9.23e-06	0.0054 ± 0.0038
303.15 K, x1 = 0.0005511, x3 = 1.737e-05	0.0097 ± 0.0038
303.15 K, x1 = 0.001084, x3 = 2.72e-06	0.0018
303.15 K, x1 = 0.001084, x3 = 1.217e-05	0.0067 ± 0.0037
303.15 K, x1 = 0.001084, x3 = 1.726e-05	0.0092 ± 0.0037
308.15 K, x1 = 0.0005511, x3 = 3.98e-06	0.0028 ± 0.0043
308.15 K, x1 = 0.0005511, x3 = 7.6e-06	0.0049 ± 0.0042
308.15 K, x1 = 0.0005511, x3 = 1.031e-05	0.0065 ± 0.0041
308.15 K, x1 = 0.001084, x3 = 4.18e-06	0.0028 ± 0.0041
308.15 K, x1 = 0.001084, x3 = 8.36e-06	0.005 ± 0.004
308.15 K, x1 = 0.001084, x3 = 1.235e-05	0.0072 ± 0.004
308.15 K, x1 = 0.001084, x3 = 1.689e-05	0.0097 ± 0.004

CC[n+]1ccn(C)c1.O=S(=O)([N-]S(=O)(=O)C(F)(F)F)C(F)(F)F + O=C1CCCO1
100 kPa, frequency 0.005 MHz
Settings	electrical conductivity [S/m]
293.15 K, x2 = 0	0.774 ± 0.023
293.15 K, x2 = 0.3005	1.17 ± 0.035
293.15 K, x2 = 0.5101	1.47 ± 0.044
293.15 K, x2 = 0.9005	1.58 ± 0.048
293.15 K, x2 = 0.95	1.13 ± 0.037
298.15 K, x2 = 0.2073	1.19 ± 0.036
303.15 K, x2 = 0	1.06 ± 0.032
303.15 K, x2 = 0.2073	1.34 ± 0.04
303.15 K, x2 = 0.3005	1.47 ± 0.044
303.15 K, x2 = 0.5101	1.79 ± 0.054
303.15 K, x2 = 0.7	2.07 ± 0.062
303.15 K, x2 = 0.7994	2.09 ± 0.063
303.15 K, x2 = 0.8498	2.06 ± 0.062
303.15 K, x2 = 0.95	1.32 ± 0.043
308.15 K, x2 = 0	1.2 ± 0.036
308.15 K, x2 = 0.7994	2.25 ± 0.068
313.15 K, x2 = 0	1.35 ± 0.041
313.15 K, x2 = 0.3005	1.77 ± 0.053
318.15 K, x2 = 0.2073	1.82 ± 0.055
318.15 K, x2 = 0.5101	2.31 ± 0.069
318.15 K, x2 = 0.95	1.59 ± 0.052
323.15 K, x2 = 0.2073	2.04 ± 0.061
323.15 K, x2 = 0.6	2.69 ± 0.081

CC[n+]1ccn(C)c1.O=S(=O)([N-]S(=O)(=O)C(F)(F)F)C(F)(F)F + O=C1OCCO1
100 kPa, x2 = 0
Settings	viscosity [mPa·s]
383.15 K	4.2 ± 0.4
393.15 K	3.7 ± 0.4

C[N+](C)(C)Cc1ccccc1.[Cl-] + O=C([O-])C1=NN(c2ccc(S(=O)(=O)[O-])cc2)C(=O)C1N=Nc1ccc(S(=O)(=O)[O-])cc1.[Na+].[Na+].[Na+] + O
electrical conductivity [S/m], 101.3 kPa, frequency 0.001 MHz
Settings	298.15 K	308.15 K	318.15 K
x2 = 0, x1 = 1.802e-05	0.0137 ± 0.0052	0.0183 ± 0.0062	0.0233 ± 0.0077
x2 = 0, x1 = 5.406e-05	0.0295 ± 0.0056	0.0398 ± 0.0071	0.0456 ± 0.0084
x2 = 0, x1 = 9.009e-05	0.0457 ± 0.0069	0.0565 ± 0.0079	0.0643 ± 0.0094

viscosity [mPa·s], 101.3 kPa
Settings	298.15 K	308.15 K	318.15 K
x2 = 0, x1 = 1.802e-05	0.88 ± 0.045	0.726 ± 0.044	0.611 ± 0.044
x2 = 0, x1 = 5.406e-05	0.897 ± 0.045	0.747 ± 0.044	0.627 ± 0.044
x2 = 0, x1 = 9.009e-05	0.914 ± 0.045	0.766 ± 0.045	0.646 ± 0.044
